According to ChEMBL document CHEMBL1201862, “PubChem BioAssay data set” (2004):
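1) Cells in 96-well plates. 2) Compound, 48 h, 5 concentrations. 3) Linear interpolation between surrounding doses. 4) Unreached endpoint = highest concentration. Abbreviation: GI50, concentration required for 50% inhibition of growth.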 The source made the active and inactive calls. No stated cut-off is given here; in the data, active = GI50 up to about 1.1 µM and inactive = higher.

Tests used:
Assay in all cases: NCI anticancer screen, dose series, 48 h
MCF7 = system: MCF7
UACC-62 = system: UACC-62
NCI-H522 = system: NCI-H522
ACHN = system: ACHN
MOLT-4 = system: MOLT-4
HL-60 = system: HL-60
Malme-3M = system: Malme-3M
SF-295 = system: SF-295
M14 = system: M14
A498 = system: A498
RXF 393 = system: RXF 393
CAKI-1 = system: CAKI-1
OVCAR-4 = system: OVCAR-4
SK-OV-3 = system: SK-OV-3
HCT-116 = system: HCT-116
SR = system: SR
OVCAR-8 = system: OVCAR-8
PC-3 = system: PC-3
HCC 2998 = system: HCC 2998
UACC-257 = system: UACC-257
U-251 = system: U-251
NCI/ADR-RES = system: NCI/ADR-RES
HCT-15 = system: HCT-15
EKVX = system: EKVX
K562 = system: K562
BT-549 = system: BT-549
NCI-H226 = system: NCI-H226
TK-10 = system: TK-10
DU-145 = system: DU-145
HOP-62 = system: HOP-62
COLO 205 = system: COLO 205
OVCAR-3 = system: OVCAR-3
SK-MEL-5 = system: SK-MEL-5
T47D = system: T47D
MDA-N = system: MDA-N
SK-MEL-28 = system: SK-MEL-28
KM12 = system: KM12
NCI-H460 = system: NCI-H460
Hs-578T = system: Hs-578T
SW-620 = system: SW-620
A549 = system: A549
OVCAR-5 = system: OVCAR-5
SNB-75 = system: SNB-75
CCRF-CEM = system: CCRF-CEM
SNB-19 = system: SNB-19
MDA-MB-231 = system: MDA-MB-231
HT-29 = system: HT-29
UO-31 = system: UO-31
NCI-H23 = system: NCI-H23
SF-539 = system: SF-539
786-0 = system: 786-0
SF-268 = system: SF-268
SN12C = system: SN12C
IGROV-1 = system: IGROV-1
HOP-92 = system: HOP-92
RPMI-8226 = system: RPMI-8226
SK-MEL-2 = system: SK-MEL-2
MDA-MB-435 = system: MDA-MB-435
LOX IMVI = system: LOX IMVI

Q: For `O=c1[nH]c2ccc(O)cc2o1`, which GI50 (MCF7) is on record?
A: > 100 µM (inactive)

Q: And the GI50 (UACC-62)?
A: > 100 µM (inactive)

Q: And the GI50 (NCI-H522)?
A: > 100 µM (inactive)

Q: What about the GI50 (ACHN) of the same compound?
A: > 100 µM (inactive)

Q: What about the GI50 (MOLT-4) of the same compound?
A: > 100 µM (inactive)

Q: What about the GI50 (HL-60) of the same compound?
A: > 100 µM (inactive)

Q: And the GI50 (Malme-3M)?
A: 0.601 µM (active)

Q: And the GI50 (SF-295)?
A: > 100 µM (inactive)

Q: And the GI50 (M14)?
A: > 100 µM (inactive)

Q: And the GI50 (A498)?
A: > 100 µM (inactive)

Q: What about the GI50 (RXF 393) of the same compound?
A: 2.49 µM (inactive)

Q: And the GI50 (CAKI-1)?
A: > 100 µM (inactive)

Q: And the GI50 (OVCAR-4)?
A: > 100 µM (inactive)

Q: What about the GI50 (SK-OV-3) of the same compound?
A: > 100 µM (inactive)

Q: What about the GI50 (HCT-116) of the same compound?
A: > 100 µM (inactive)

Q: And the GI50 (SR)?
A: > 100 µM (inactive)

Q: What about the GI50 (OVCAR-8) of the same compound?
A: > 100 µM (inactive)

Q: And the GI50 (PC-3)?
A: > 100 µM (inactive)

Q: And the GI50 (HCC 2998)?
A: 2.56 µM (inactive)

Q: And the GI50 (UACC-257)?
A: > 100 µM (inactive)

Q: And the GI50 (U-251)?
A: > 100 µM (inactive)

Q: What about the GI50 (NCI/ADR-RES) of the same compound?
A: > 100 µM (inactive)

Q: And the GI50 (HCT-15)?
A: > 100 µM

Q: What about the GI50 (EKVX) of the same compound?
A: > 100 µM (inactive)

Q: And the GI50 (K562)?
A: > 100 µM (inactive)

Q: What about the GI50 (BT-549) of the same compound?
A: > 100 µM (inactive)

Q: And the GI50 (NCI-H226)?
A: > 100 µM (inactive)

Q: What about the GI50 (TK-10) of the same compound?
A: > 100 µM (inactive)

Q: What about the GI50 (DU-145) of the same compound?
A: > 100 µM (inactive)

Q: What about the GI50 (HOP-62) of the same compound?
A: > 100 µM (inactive)

Q: And the GI50 (COLO 205)?
A: > 100 µM (inactive)

Q: And the GI50 (OVCAR-3)?
A: > 100 µM (inactive)

Q: What about the GI50 (SK-MEL-5) of the same compound?
A: > 100 µM (inactive)

Q: What about the GI50 (T47D) of the same compound?
A: > 100 µM (inactive)

Q: And the GI50 (MDA-N)?
A: > 100 µM (inactive)

Q: What about the GI50 (SK-MEL-28) of the same compound?
A: > 100 µM (inactive)

Q: And the GI50 (KM12)?
A: > 100 µM (inactive)

Q: And the GI50 (NCI-H460)?
A: > 100 µM (inactive)

Q: And the GI50 (Hs-578T)?
A: > 100 µM (inactive)

Q: What about the GI50 (SW-620) of the same compound?
A: > 100 µM (inactive)

Q: What about the GI50 (A549) of the same compound?
A: > 100 µM (inactive)

Q: And the GI50 (OVCAR-5)?
A: > 100 µM (inactive)

Q: What about the GI50 (SNB-75) of the same compound?
A: 42.7 µM (inactive)

Q: What about the GI50 (CCRF-CEM) of the same compound?
A: > 100 µM (inactive)

Q: What about the GI50 (SNB-19) of the same compound?
A: > 100 µM (inactive)

Q: And the GI50 (MDA-MB-231)?
A: > 100 µM (inactive)

Q: What about the GI50 (HT-29) of the same compound?
A: > 100 µM (inactive)

Q: And the GI50 (UO-31)?
A: > 100 µM (inactive)

Q: What about the GI50 (NCI-H23) of the same compound?
A: > 100 µM (inactive)

Q: And the GI50 (SF-539)?
A: > 100 µM (inactive)

Q: And the GI50 (786-0)?
A: > 100 µM (inactive)

Q: And the GI50 (SF-268)?
A: > 100 µM (inactive)

Q: And the GI50 (SN12C)?
A: > 100 µM (inactive)

Q: What about the GI50 (IGROV-1) of the same compound?
A: > 100 µM (inactive)

Q: What does the source list for `CCCCS(=O)(=O)CCC(N)P(=O)(O)O` (stereo not drawn)?
A: GI50 (MCF7): > 100 µM (inactive); GI50 (UACC-62): > 100 µM (inactive); GI50 (NCI-H522): > 100 µM (inactive); GI50 (ACHN): > 100 µM (inactive); GI50 (HOP-92): > 100 µM (inactive); GI50 (MOLT-4): > 100 µM (inactive); GI50 (HL-60): > 100 µM (inactive); GI50 (Malme-3M): > 100 µM (inactive); GI50 (SF-295): > 100 µM (inactive); GI50 (M14): > 100 µM (inactive); GI50 (CAKI-1): > 100 µM (inactive); GI50 (OVCAR-4): > 100 µM (inactive); GI50 (SK-OV-3): > 100 µM (inactive); GI50 (HCT-116): > 100 µM (inactive); GI50 (SR): > 100 µM (inactive); GI50 (OVCAR-8): > 100 µM (inactive); GI50 (PC-3): > 100 µM (inactive); GI50 (UACC-257): > 100 µM (inactive); GI50 (U-251): > 100 µM (inactive); GI50 (NCI/ADR-RES): > 100 µM (inactive); GI50 (HCT-15): > 100 µM; GI50 (EKVX): > 100 µM (inactive); GI50 (K562): > 100 µM (inactive); GI50 (BT-549): > 100 µM (inactive); GI50 (NCI-H226): > 100 µM (inactive); GI50 (TK-10): > 100 µM (inactive); GI50 (DU-145): > 100 µM (inactive); GI50 (HOP-62): > 100 µM (inactive); GI50 (COLO 205): > 100 µM (inactive); GI50 (OVCAR-3): > 100 µM (inactive); GI50 (SK-MEL-5): > 100 µM (inactive); GI50 (T47D): > 100 µM (inactive); GI50 (MDA-N): > 100 µM (inactive); GI50 (SK-MEL-28): > 100 µM (inactive); GI50 (RPMI-8226): > 100 µM (inactive); GI50 (KM12): > 100 µM (inactive); GI50 (NCI-H460): > 100 µM (inactive); GI50 (SK-MEL-2): > 100 µM (inactive); GI50 (Hs-578T): > 100 µM (inactive); GI50 (SW-620): > 100 µM (inactive); GI50 (A549): > 100 µM (inactive); GI50 (OVCAR-5): > 100 µM (inactive); GI50 (SNB-75): > 100 µM (inactive); GI50 (CCRF-CEM): > 100 µM (inactive); GI50 (MDA-MB-435): > 100 µM (inactive); GI50 (SNB-19): > 100 µM (inactive); GI50 (LOX IMVI): > 100 µM (inactive); GI50 (HT-29): > 100 µM (inactive); GI50 (UO-31): > 100 µM (inactive); GI50 (NCI-H23): > 100 µM (inactive); GI50 (786-0): > 100 µM (inactive); GI50 (SF-268): > 100 µM (inactive); GI50 (SN12C): > 100 µM (inactive); GI50 (IGROV-1): > 100 µM (inactive)
